Data set [1] relates to human MCF-7 breast cancer cells. Nature of the data set: Cell viability (Alamar Blue) antiproliferative assay in MCF-7 cells. Format: cell-based. The settings on record: Homo sapiens, MCF7, 72 h, human MCF-7 breast cancer cells; 72 h; mean ± SEM; read-out: Antiproliferative Activity IC50. Here is the method:
The human breast carcinoma cell line MCF-7, was purchased from the European Collection of Animal Cell Cultures (ECACC) and was cultured in Eagle’s minimum essential medium with 10% fetal bovine serum, 2 mM L-glutamine and 100 μg/mL penicillin/streptomycin. The medium was supplemented with 1% non-essential amino acids. The human breast carcinoma cell line MDA-MB-231 was purchased from the European Collection of Animal Cell Cultures (ECACC). MDA-MB-231 cells were maintained in Dulbecco’s modified Eagle’s medium (DMEM) supplemeted with 10% (v/v) fetal bovine serum, 2 mM L-glutamine and 100 μg/mL penicillin/streptomycin (complete medium). All media contained 100 U/mL penicillin and 100 μg/mL streptomycin. Triple negative breast cancer Hs578T cells and its invasive variant Hs578Ts(i)8 were obtained as a kind gift from Dr. Susan McDonnell, School of Chemical and Bioprocess Engineering, University College Dublin and were cultured in Dulbecco’s Modified Eagle’s Media (DMEM) with GlutaMAX^TM-I, with the same supplement as for MDA-MB-231 cells in the absence of non-essential amino acids. HEK-293T normal epithelial embryonic kidney cells were cultured in Dulbecco’s Modified Eagle’s Medium (DMEM) with GlutaMAX^TM-I in the absence of non-essential amino acids. K562 and HL-60 cells were originally obtained from the European Collection of Cell Cultures (Salisbury, UK).The K562 cells were derived from a patient in the blast crisis stage of CML HL-60 cells were derive from a patient with acute myeloid leukaemia. Cells were cultured in RPMI-1640 Glutamax medium supplemented with 10% FCS media, and 100 μg/mL penicillin/streptomycin. Cells were maintained at 37 °C in 5% CO2 in a humidified incubator. All cells were sub-cultured three times/week (adherent cells by trypsinisation).
Cells were seeded at a density of 5 × 10^3 cells/well (MCF-7), in triplicate in 96-well plates. After 24 h, cells were then treated with either medium alone, vehicle [1% ethanol (v/v)] or with serial dilutions of CA-4 or β-lactam analogue. Cell viability for MCF-7 and MDA-MB-231 was analysed using the Alamar Blue assay (Invitrogen Corp, Thermo Fisher Scientific, 168 Third Avenue, Waltham, MA, USA) according to the manufacturer’s instructions. After 72 h, Alamar Blue [10% (v/v)] was added to each well and plates were incubated for 3–5 h at 37 °C in the dark. Fluorescence was read using a 96-well fluorimeter with excitation at 530 nm and emission at 590 nm. Results were expressed as percentage viability relative to vehicle control (100%). Dose response curves were plotted and IC50 values (concentration of drug resulting in 50% reduction in cell survival) were obtained using the commercial software package Prism (GraphPad Software, Inc., 2365 Northside, Suite 560, San Diego, CA, USA). Experiments were performed in triplicate on at least three separate occasions.

Some results are limits rather than exact numbers.

For `C=CC1C(=O)N(c2cc(OC)c(OC)c(OC)c2)C1c1ccc(F)cc1` (stereo not shown) [Compound 7a, 4-(4-Fluorophenyl)-1-(3,4,5-trimethoxyphenyl)-3-vinylazetidin-2-one], the melting point lay in the range of 147 to 149 °C. Moreover, the IC50 in data set [1] amounted to 8.31 ± 1.4 µM.
Turning to `C=CC1C(=O)N(c2cc(OC)c(OC)c(OC)c2)C1c1ccc(Br)cc1` (stereo not shown) [Compound 7c, 4-(4-Bromophenyl)-1-(3,4,5-trimethoxyphenyl)-3-vinylazetidin-2-one], the IC50 in data set [1] is 0.445 ± 0.07 µM.
On the same count and under the same terms, as for `C=CC1C(=O)N(c2cc(OC)c(OC)c(OC)c2)C1c1ccc(N(C)C)cc1` (stereo not shown) [Compound 7e, 4-(4-Dimethylaminophenyl)-1-(3,4,5-trimethoxyphenyl)-3-vinylazetidin-2-one], the figure is 4.05 ± 0.45 µM.
In turn, `C=CC1C(=O)N(c2cc(OC)c(OC)c(OC)c2)C1c1ccccc1` (stereo not shown) [Compound 7f, 4-Phenyl-1-(3,4,5-trimethoxyphenyl)-3-vinylazetidin-2-one] showed a melting point of 109 to 111 °C. For the same molecule, in data set [1], the IC50 was 4.03 ± 0.42 µM.
In the case of `C=CC1C(=O)N(c2cc(OC)c(OC)c(OC)c2)C1c1ccc(C)cc1` (stereo not shown) [Compound 7g, 4-p-Tolyl-1-(3,4,5-trimethoxyphenyl)-3-vinylazetidin-2-one], the melting point is 106 to 107 °C. Besides, the IC50 in data set [1] was 0.355 ± 0.03 µM.
Molecule `C=CC1C(=O)N(c2cc(OC)c(OC)c(OC)c2)C1c1ccc(OCCCC)cc1` (stereo not shown) [Compound 7j, 4-(4-Butoxyphenyl)-1-(3,4,5-trimethoxyphenyl)-3-vinylazetidin-2-one] had a melting point of 100 to 102 °C. Also, in data set [1], the IC50 came out at 14 ± 1.81 µM.
In turn, `C=CC1C(=O)N(c2cc(OC)c(OC)c(OC)c2)C1c1ccc(Oc2ccccc2)cc1` (stereo not shown) [Compound 7k, 4-(4-Phenoxyphenyl)-1-(3,4,5-trimethoxyphenyl)-3-vinylazetidin-2-one] came in with a melting point of 128 to 130 °C. For the same molecule, the IC50 in data set [1] amounted to 57 ± 3.72 µM.
As for `C=CC1C(=O)N(c2cc(OC)c(OC)c(OC)c2)C1c1ccc(OCc2ccccc2)cc1` (stereo not shown) [Compound 7l, 4-(4-Benzyloxyphenyl)-1-(3,4,5-trimethoxyphenyl)-3-vinylazetidin-2-one], the melting point lay in the range of 148 to 149 °C. Besides, the IC50 in data set [1] was 8.02 ± 0.63 µM.
Take `C=CC1C(=O)N(c2cc(OC)c(OC)c(OC)c2)C1c1cccc2ccccc12` (stereo not shown) [Compound 7m, 4-Naphthalen-1-yl-1-(3,4,5-trimethoxyphenyl)-3-vinylazetidin-2-one]: the melting point was 121 to 122 °C. In data set [1], the 50% inhibitory concentration (IC50) stood at 1.74 ± 0.17 µM.
Regarding `C=CC1C(=O)N(c2cc(OC)c(OC)c(OC)c2)C1c1ccc(OC)c([N+](=O)[O-])c1` (stereo not shown) [Compound 7p, 4-(4-Methoxy-3-nitrophenyl)-1-(3,4,5-trimethoxyphenyl)-3-vinylazetidin-2-one], in data set [1], the IC50 was 0.618 ± 0.1 µM.
Take `C=CC1C(=O)N(c2ccc(F)cc2)C1c1cc(OC)c(OC)c(OC)c1` (stereo not shown) [Compound 8a, 4-(3,4,5-Trimethoxyphenyl)-1-(4-fluorophenyl)-3-vinylazetidin-2-one]: the IC50 in data set [1] was determined as 1.07 ± 0.14 µM.
In the case of `C=CC1C(=O)N(c2ccc(Cl)cc2)C1c1cc(OC)c(OC)c(OC)c1` (stereo not shown) [Compound 8b, 4-(3,4,5-Trimethoxyphenyl)-1-(4-chlorophenyl)-3-vinylazetidin-2-one], the melting point lay within 131 to 133 °C. Further, in data set [1], the IC50 was 29.2 ± 1.14 µM.
Molecule `C=CC1C(=O)N(c2ccc(Br)cc2)C1c1cc(OC)c(OC)c(OC)c1` (stereo not shown) [Compound 8c, 4-(3,4,5-Trimethoxyphenyl)-1-(4-bromophenyl)-3-vinylazetidin-2-one] registered a melting point of 120 to 122 °C. Also, the IC50 in data set [1] worked out at 10.4 ± 0.87 µM.
Regarding `C=CC1C(=O)N(c2ccc([N+](=O)[O-])cc2)C1c1cc(OC)c(OC)c(OC)c1` (stereo not shown) [Compound 8d, 4-(3,4,5-Trimethoxyphenyl)-1-(4-nitrophenyl)-3-vinylazetidin-2-one], the IC50 in data set [1] came to 59.1 ± 4.16 µM.
For the molecule `C=CC1C(=O)N(c2ccc(C(C)(C)C)cc2)C1c1cc(OC)c(OC)c(OC)c1` (stereo not shown) [Compound 8e, 4-(3,4,5-Trimethoxyphenyl)-1-(4-tert-butylphenyl)-3-vinylazetidin-2-one], the melting point is 172 to 174 °C. In addition, the IC50 in data set [1] was 68.8 ± 3.63 µM.
Molecule `C=CC1C(=O)N(c2ccccc2)C1c1cc(OC)c(OC)c(OC)c1` (stereo not shown) [Compound 8f, 4-(3,4,5-Trimethoxyphenyl)-1-phenyl-3-vinylazetidin-2-one] yielded a melting point of 150 to 151 °C. Also, in data set [1], the half-inhibitory concentration (IC50) amounted to 50.5 ± 4.25 µM.
As for `C=CC1C(=O)N(c2ccc(C)cc2)C1c1cc(OC)c(OC)c(OC)c1` (stereo not shown) [Compound 8g, 4-(3,4,5-Trimethoxyphenyl)-1-p-tolyl-3-vinylazetidin-2-one], the IC50 in data set [1] amounted to 43.1 ± 2.16 µM.
As for `C=CC1C(=O)N(c2ccc(CC)cc2)C1c1cc(OC)c(OC)c(OC)c1` (stereo not shown) [Compound 8h, 4-(3,4,5-Trimethoxyphenyl)-1-(4-ethylphenyl)-3-vinylazetidin-2-one], the melting point was in the range of 110 to 112 °C. In data set [1], the IC50 worked out at 36.4 ± 2.13 µM.
For the molecule `C=CC1C(=O)N(c2ccc(OC)cc2)C1c1cc(OC)c(OC)c(OC)c1` (stereo not shown) [Compound 8i, 4-(3,4,5-Trimethoxyphenyl)-1-(4-methoxyphenyl)-3-vinylazetidin-2-one], the IC50 in data set [1] was determined as 65.1 ± 5.55 µM.
`C=CC1C(=O)N(c2ccc(NC(C)=O)cc2)C1c1cc(OC)c(OC)c(OC)c1` (stereo not shown) [Compound 8j, N-(4-(2-(3,4,5-Trimethoxyphenyl)-4-oxo-3-vinylazetidin-1-yl)phenyl)acetamide] showed a melting point of 223 to 224 °C. In addition, the IC50 in data set [1] is 4.02 ± 0.64 µM.
On to `C=CC1C(=O)N(c2ccc(SC)cc2)C1c1cc(OC)c(OC)c(OC)c1` (stereo not shown) [Compound 8k, 1-(4-(Methylthio)phenyl)-4-(3,4,5-trimethoxyphenyl)-3-vinylazetidin-2-one], for which the melting point was in the range of 104 to 106 °C. Besides, the IC50 in data set [1] was more than 50 µM.
On the same counts, the results for `COc1ccc(C2CC(=O)N2c2cc(OC)c(OC)c(OC)c2)cc1O` (stereo not shown) [Compound 9c, 4-(3-Hydroxy-4-methoxyphenyl)-1-(3,4,5-trimethoxyphenyl)-azetidin-2-one] are 78 to 80 °C and 0.017 µM.
As to `COc1ccc(C2C(C(C)O)C(=O)N2c2cc(OC)c(OC)c(OC)c2)cc1O` (stereo not shown) [Compound 10a, 3-(1-Hydroxyethyl)-4-(3-hydroxy-4-methoxyphenyl)-1-(3,4,5-trimethoxyphenyl) azetidin-2-one], the IC50 in data set [1] amounted to 0.065 ± 0.015 µM.
Regarding `C/C=C/C(O)C1C(=O)N(c2cc(OC)c(OC)c(OC)c2)C1c1ccc(OC)cc1` (stereo not shown) [Compound 10b, 3-((E)-1-Hydroxybut-2-enyl)-1-(3,4,5-trimethoxyphenyl)-4-(4-methoxyphenyl) azetidin-2-one], the melting point was 143 to 144 °C. Further, the IC50 in data set [1] was 0.292 ± 0.05 µM.
Regarding `COc1ccc(C2C(C(O)/C=C/c3ccccc3)C(=O)N2c2cc(OC)c(OC)c(OC)c2)cc1` (stereo not shown) [Compound 10e, 3-((E)-1-Hydroxy-3-phenylallyl)-1-(3,4,5-trimethoxyphenyl)-4-(4-methoxyphenyl) azetidin-2-one], in data set [1], the IC50 came out at 0.537 ± 0.08 µM.
On to `C=CC(O)C1C(=O)N(c2cc(OC)c(OC)c(OC)c2)C1c1ccc(OC)c(O)c1` (stereo not shown) [Compound 10g, 4-(3-Hydroxy-4-methoxyphenyl)-3-(1-hydroxyallyl)-1-(3,4,5-trimethoxyphenyl) azetidin-2-one], for which the IC50 in data set [1] came to 0.288 ± 0.076 µM.
For `C=CC(C)(O)C1C(=O)N(c2cc(OC)c(OC)c(OC)c2)C1c1ccc(OC)c(O)c1` (stereo not shown) [Compound 10h, 4-(3-Hydroxy-4-methoxy-phenyl)-3-(1-hydroxy-1-methylallyl)-1-(3,4,5-trimethoxy-phenyl)-azetidin-2-one], the IC50 in data set [1] was 0.467 ± 0.000253 µM.
For `COc1ccc(C2C(C(C)=O)C(=O)N2c2cc(OC)c(OC)c(OC)c2)cc1O` (stereo not shown) [Compound 11, 3-Acetyl-4-(3-hydroxy-4-methoxyphenyl)-1-(3,4,5-trimethoxyphenyl)azetidin-2-one], in data set [1], the IC50 was found to be 0.414 ± 0.132 µM.
Same read-out and setting: as for `COc1ccc(C2C(C(O)CO)C(=O)N2c2cc(OC)c(OC)c(OC)c2)cc1O` (stereo not shown) [Compound 13, 3-(1,2-Dihydroxyethyl)-4-(3-hydroxy-4-methoxyphenyl)-1-(3,4,5-trimethoxyphenyl) azetidin-2-one], the figure is 0.069 ± 0.029 µM.
Still for that read-out and setting: as for `C=CC1C(=O)N(c2cc(OC)c(OC)c(OC)c2)C1c1ccc(OC)c(NC(=O)C(C)N)c1` (stereo not shown) [Compound 15, 2-Amino-N-(2-methoxy-5-(1-(3,4,5-trimethoxyphenyl)-4-oxo-3-vinylazetidin-2-yl)phenyl)propanamide], the figure is 3.25 ± 0.27 µM.
